The record followed here is patent publication US9428813B2, “DNA methylation analysis for the diagnosis, prognosis and treatment of adrenal neoplasms” (The United States of America, as Represented by the …, priority 2012, dated 2016).

The test relates to NCI-H295R cells. Description: Gene expression in decitabine-treated NCI-H295R adrenocortical cells. The format is cell-based. The settings on record: human adrenocortical cells; including H19, S100A10, HOPX, ERBB3 and RUNX2. The protocol:
Studies were performed on human adrenocortical cells and the effect of decitabine on gene-expression of HTN3, H19, S100A10, FAM129A, HOPX, TAC1, UCHL1, ERBB3, BEGNT5, RUNX2, GJA3, and BGN was evaluated. […] As such, these studies indicate that demethylating agents are agents capable of regulating malignant adrenocortical tumor-related molecules and can be used to treat ACC.

For the molecule `Nc1ncn([C@H]2C[C@H](O)[C@@H](CO)O2)c(=O)n1` [Decitabine, 5-azadeoxycytidine], the “Effect on expression of malignant adrenocortical tumor-related molecules” value is “significantly alter the expression”.
